{
  "source": "paper PMC12299890",
  "about": "(Pharmaceuticals, 2025)",
  "key": {"[1]": {"design": "method as in PMID 16250252", "settings": "male Sprague-Dawley rats; cited from earlier work"}, "[2]": {"experiment": "Pharmacokinetics of MI in Wistar rat model after oral administration (Antonowski and co-workers)", "type": "in vivo", "settings": "rat serum; MI data of ref 30 vs SCI of this study", "experimental": "Antonowski and co-workers examined the PK of MI in Wistar rat models.\nBioavailability studies in animal models are a critical step in evaluating how much of a substance is absorbed and becomes available in the body. A rat model is excellent to maximize the relevance of SCI to human health. Antonowski and co-workers used a rat model for the PK analysis of MI. In this study, a dose of 20 mg/kg MI was orally administrated to rats and afterwards, the serum concentration of MI was measured. […] Then, the concentration of MI began to decrease immediately. […] Studies should be extended to include intraperitoneal injection or direct injection into blood vessels to determine the bioactivity of these INSs."}, "[3]": {"settings": "cited from earlier work"}},
  "note": "“Also recorded” adds a separate entry of the source.",
  "data": [
    {"compound": "O=C(O)[C@H]1O[C@@H](Oc2cc3oc(-c4ccc(O)cc4)cc(=O)c3c(O)c2O)[C@H](O)[C@@H](O)[C@@H]1O", "note": "[scutellarin]", "values": [
      {"measurement": "Relative bioavailability of oral administration compared to intraperitoneal injection", "setting": "[1]", "result": "very low"}
    ]},
    {"compound": "O[C@H]1[C@H](O)[C@@H](O)[C@H](O)[C@@H](O)[C@H]1O", "note": "[MI, myo-inositol]", "values": [
      {"measurement": "AUC of MI compared with SCI", "setting": "[2]", "result": "lower than for SCI"},
      {"measurement": "Side effects of MI administration", "setting": "[3]; oral MI", "result": "no serious side effects"},
      {"measurement": "Time of highest MI serum concentration (Cmax) after oral administration", "setting": "[3]; serum, oral 20 mg/kg MI", "result": "first hour"},
      {"measurement": "MI level 24 h after administration", "setting": "[3]; serum, oral MI", "result": "still higher than before the administration; also recorded: still higher than before the supplementation"}
    ]}
  ]
}
